Assay type in all cases: in vivo
In test [1] the test system is mice. In words: Production amount of antibody in mice by ELISA with CoQ2, CoQ4, CoQ6 or CoQ10 as immunoadjuvant (Test Example 3). As to conditions: used as immunoadjuvant together with antigenic substance; serum sample on the 25th day; ELISA absorbance (FIG. 3). Here is the method:
The following test was carried out according to the procedure of Text example 1 by using ELISA to confirm the amount of antibody in mice produced upon the administration of coenzyme Q2 (n=2; CoQ2), coenzyme Q4 (n=4; CoQ4), coenzyme Q6 (n=6; CoQ6) or coenzyme Q10 (n=10; CoQ10) together with an antigenic substance. The case where only an antigenic substance had been administered was selected as a reference example in the test.
As a result, the average of the absorbance for the serum sample on the 25th day from the start of the test in each group was as shown in FIG. 3.
(In general: An ELISA detects its analyte on a solid surface through an enzyme-linked reagent.)

In test [2] the test system is Balb/c mice. As to the kind of experiment: Production amount of antibody in mouse serum by ELISA after dermal administration of antigenic substance with immunoadjuvant (Test Example 1).
In test [3] the test system is Balb/c mice. In words: Measurement of IgG1/IgG2 ratio in blood sample as index of Th2/Th1 balance (Test Example 2). The protocol: The blood sample collected on the 25th day from the start of the test was provided, and the IgG1/IgG2 ratio was measured as an index of Th2/Th1 balance.
Further, a blood sample obtained by inoculating only the antigenic substance by intraperitoneal administration instead of the dermal administration at the same time as in the administration schedule in Test Example 1 was used as a control blood sample for comparison.
The IgG1/IgG2 ratio was measured with a Mouse Monoclonal Antibody Isotyping Reagents kit (SIGMA).
Specifically, a mouse serum was diluted with PBS by a factor of 1000 to give a solution. The solution (100 μL) was added to wells in a plate and was incubated at 37° C. for one hr. Next, each well was washed three times with PBS, and 100 μL of isotyping specific reagents (reagents containing IgA, IgG1, IgG2a, and IgG2b), which had been diluted by a factor of 1000, were added to the wells followed by incubation at room temperature for 30 min. Each well was washed three times with PBST. A peroxidase labelled […] (manufactured by SIGMA) (100 μL), which had been diluted with PBST by a factor of 5000, was added to the wells, and the wells were allowed to stand at room temperature for one hr. The wells were then washed three times with PBST. […] For each well, the absorbance was measured with Multiscan Ascent (manufactured by Thermo Labsystems, wave length 405 nm).

Turning to `COC1=C(OC)C(=O)C(C/C=C(\C)CCC=C(C)C)=C(C)C1=O` [coenzyme Q2], in test [1], the “production amount of the antibody compared with the case where only the antigenic substance was administered” value is “larger”.

On to `COC1=C(OC)C(=O)C(C/C=C(\C)CC/C=C(\C)CC/C=C(\C)CCC=C(C)C)=C(C)C1=O` [coenzyme Q4], for which the “production amount of the antibody compared with the case where only the antigenic substance was administered” value in test [1] is given as “larger”.

For the compound `COC1=C(OC)C(=O)C(C/C=C(\C)CC/C=C(\C)CC/C=C(\C)CC/C=C(\C)CC/C=C(\C)CCC=C(C)C)=C(C)C1=O` [coenzyme Q6], the “production amount of the antibody compared with the case where only the antigenic substance was administered” value in test [1] was “larger”.

As to `COC1=C(OC)C(=O)C(C/C=C(\C)CC/C=C(\C)CC/C=C(\C)CC/C=C(\C)CC/C=C(\C)CC/C=C(\C)CC/C=C(\C)CC/C=C(\C)CC/C=C(\C)CCC=C(C)C)=C(C)C1=O` [coenzyme Q10], the “average±standard error of the absorbance (amount of produced antibody, ELISA)” value in test [2] (dermal administration (tape preparation), serum sample on the 25th day from the start of the test, serum diluted 1000-fold, 405 nm, n=4) was 0.670±0.033. Also, in test [3] (dermal administration of the antigenic substance together with adjuvant, blood sample on the 25th day), the “IgG1/IgG2 ratio (given as average of the absorbance)” value was 2.28. In test [1], the “production amount of the antibody compared with the case where only the antigenic substance was administered” value is reported as “larger”.

Take cholera toxin [reference compound]: in test [2] (mouse, in vivo), the “average±standard error of the absorbance (amount of produced antibody, ELISA)” value is on record as 0.551±0.202. For the same compound, in test [3] (mouse, in vivo), the “IgG1/IgG2 ratio (given as average of the absorbance)” value is 1.46.

The values above are taken from US20090252751A1, “Immune adjuvant comprising ubiquinone” (priority 2007, published 2009).
